Test results: PMC8800111 (The Journal of Biological Chemistry, 2021)

Assays:
Assay type in all cases: cell-based
[1] = target: proteins of U3A human fibrosarcoma cells (4462 proteins detected) (Homo sapiens, UniProt P78316); conditions: protein NOP14; U3A cells
[2] = target: proteins of U3A human fibrosarcoma cells (4462 proteins detected) (Homo sapiens, UniProt Q9Y6E2); conditions: protein BZW2; U3A cells
[3] = target: proteins of U3A human fibrosarcoma cells (4462 proteins detected) (Homo sapiens, UniProt Q9UH65); conditions: protein SWAP70; soluble abundance after heat, U3A cells
[4] = target: proteins of U3A human fibrosarcoma cells (4462 proteins detected) (Homo sapiens, UniProt O75886); conditions: protein STAM2; U3A cells
[5] = target: proteins of U3A human fibrosarcoma cells (4462 proteins detected) (Homo sapiens, UniProt Q9Y592); conditions: protein CEP83; U3A, 10 μM, 2 h
[6] = target: proteins of U3A human fibrosarcoma cells (4462 proteins detected) (Homo sapiens, UniProt Q9NQT5); conditions: protein EXOSC3; U3A cells
[7] = target: proteins of U3A human fibrosarcoma cells (4462 proteins detected) (Homo sapiens, UniProt Q5HYK7); conditions: protein SH3D19; U3A, 10 μM, 2 h
[8] = target: proteins of U3A human fibrosarcoma cells (4462 proteins detected) (Homo sapiens, UniProt Q8N9T8); conditions: protein KRI1; soluble abundance after heat, U3A cells
[9] = target: proteins of U3A human fibrosarcoma cells (4462 proteins detected) (Homo sapiens, UniProt P18206); conditions: protein VCL; soluble abundance after heat, U3A cells
[10] = target: proteins of U3A human fibrosarcoma cells (4462 proteins detected) (Homo sapiens, UniProt Q3B726); conditions: protein TWISTNB; U3A cells
[11] = target: proteins of U3A human fibrosarcoma cells (4462 proteins detected) (Homo sapiens, UniProt O00244); conditions: protein ATOX1, U3A cells
[12] = target: proteins of U3A human fibrosarcoma cells (4462 proteins detected) (Homo sapiens, UniProt Q5SZL2); conditions: protein CEP85L; U3A, 10 μM, 2 h
[13] = target: proteins of U3A human fibrosarcoma cells (4462 proteins detected) (Homo sapiens, UniProt P36507); conditions: protein MAP2K2; U3A cells
[14] = target: proteins of U3A human fibrosarcoma cells (4462 proteins detected) (Homo sapiens, UniProt P23921); conditions: protein RRM1; U3A, 10 μM, 2 h
[15] = target: proteins of U3A human fibrosarcoma cells (4462 proteins detected) (Homo sapiens, UniProt Q8NHQ9); conditions: protein DDX55; U3A cells
[16] = target: proteins of U3A human fibrosarcoma cells (4462 proteins detected) (Homo sapiens, UniProt Q96DH6); conditions: protein MSI2; U3A, 10 μM, 2 h
[17] = target: proteins of U3A human fibrosarcoma cells (4462 proteins detected) (Homo sapiens, UniProt P54709); conditions: protein ATP1B3; U3A, 10 μM, 2 h
[18] = target: proteins of U3A human fibrosarcoma cells (4462 proteins detected) (Homo sapiens, UniProt Q9NTW7); conditions: protein ZFP64, U3A cells
[19] = target: proteins of U3A human fibrosarcoma cells (4462 proteins detected) (Homo sapiens, UniProt P31949); conditions: protein S100A11, U3A cells
[20] = target: proteins of U3A human fibrosarcoma cells (4462 proteins detected) (Homo sapiens, UniProt Q6KC79); conditions: protein NIPBL; U3A cells
[21] = target: proteins of U3A human fibrosarcoma cells (4462 proteins detected) (Homo sapiens, UniProt P04083); conditions: protein ANXA1, U3A cells
[22] = target: proteins of U3A human fibrosarcoma cells (4462 proteins detected) (Homo sapiens, UniProt P25440); conditions: protein BRD2; soluble abundance after heat, U3A cells
[23] = target: proteins of U3A human fibrosarcoma cells (4462 proteins detected) (Homo sapiens, UniProt Q06546); conditions: protein GABPA; U3A cells
[24] = target: proteins of U3A human fibrosarcoma cells (4462 proteins detected) (Homo sapiens, UniProt Q5JSH3); conditions: protein WDR44, U3A cells
[25] = target: proteins of U3A human fibrosarcoma cells (4462 proteins detected) (Homo sapiens, UniProt Q9Y478); conditions: protein PRKAB1; U3A cells
[26] = target: proteins of U3A human fibrosarcoma cells (4462 proteins detected) (Homo sapiens, UniProt Q96GM5); conditions: protein SMARCD1; U3A cells
[27] = target: proteins of U3A human fibrosarcoma cells (4462 proteins detected) (Homo sapiens, UniProt P17844); conditions: protein DDX5; U3A cells
[28] = target: proteins of U3A human fibrosarcoma cells (4462 proteins detected) (Homo sapiens, UniProt Q9UKV5); conditions: protein AMFR; U3A cells
[29] = target: proteins of U3A human fibrosarcoma cells (4462 proteins detected) (Homo sapiens, UniProt Q9P032); conditions: protein NDUFAF4; U3A cells
[30] = target: proteins of U3A human fibrosarcoma cells (4462 proteins detected) (Homo sapiens, UniProt O95487); conditions: protein SEC24B, U3A cells

Chain of proteins of U3A human fibrosarcoma cells (4462 proteins detected) (Homo sapiens, UniProt P78316) (P78316 whole entry): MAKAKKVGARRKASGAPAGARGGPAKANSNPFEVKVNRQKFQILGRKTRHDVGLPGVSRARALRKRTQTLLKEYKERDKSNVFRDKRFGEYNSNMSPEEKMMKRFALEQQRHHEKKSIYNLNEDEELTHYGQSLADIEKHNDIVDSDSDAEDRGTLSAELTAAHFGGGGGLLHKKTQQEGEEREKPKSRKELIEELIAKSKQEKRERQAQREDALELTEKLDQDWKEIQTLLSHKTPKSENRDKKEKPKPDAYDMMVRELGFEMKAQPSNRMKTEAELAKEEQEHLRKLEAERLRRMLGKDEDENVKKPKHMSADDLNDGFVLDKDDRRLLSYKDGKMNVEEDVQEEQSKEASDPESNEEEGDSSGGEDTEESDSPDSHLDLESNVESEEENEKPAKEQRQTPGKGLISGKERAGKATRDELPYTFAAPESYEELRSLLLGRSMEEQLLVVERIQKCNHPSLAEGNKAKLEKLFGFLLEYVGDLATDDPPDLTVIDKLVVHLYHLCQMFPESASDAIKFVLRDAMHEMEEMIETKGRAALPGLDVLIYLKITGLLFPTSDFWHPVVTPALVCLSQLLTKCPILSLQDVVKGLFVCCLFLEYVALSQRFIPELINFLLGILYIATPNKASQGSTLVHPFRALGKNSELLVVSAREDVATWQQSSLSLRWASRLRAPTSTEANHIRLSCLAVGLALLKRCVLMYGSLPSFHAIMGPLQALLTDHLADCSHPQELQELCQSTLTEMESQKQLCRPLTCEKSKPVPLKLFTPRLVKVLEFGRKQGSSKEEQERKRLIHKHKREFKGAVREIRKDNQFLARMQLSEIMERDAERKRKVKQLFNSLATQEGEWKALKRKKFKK
Chain of proteins of U3A human fibrosarcoma cells (4462 proteins detected) (Homo sapiens, UniProt O00244) (O00244 whole entry): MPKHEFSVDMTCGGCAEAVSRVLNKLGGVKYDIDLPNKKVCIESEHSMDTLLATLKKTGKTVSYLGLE
Chain of proteins of U3A human fibrosarcoma cells (4462 proteins detected) (Homo sapiens, UniProt P18206) (P18206 whole entry): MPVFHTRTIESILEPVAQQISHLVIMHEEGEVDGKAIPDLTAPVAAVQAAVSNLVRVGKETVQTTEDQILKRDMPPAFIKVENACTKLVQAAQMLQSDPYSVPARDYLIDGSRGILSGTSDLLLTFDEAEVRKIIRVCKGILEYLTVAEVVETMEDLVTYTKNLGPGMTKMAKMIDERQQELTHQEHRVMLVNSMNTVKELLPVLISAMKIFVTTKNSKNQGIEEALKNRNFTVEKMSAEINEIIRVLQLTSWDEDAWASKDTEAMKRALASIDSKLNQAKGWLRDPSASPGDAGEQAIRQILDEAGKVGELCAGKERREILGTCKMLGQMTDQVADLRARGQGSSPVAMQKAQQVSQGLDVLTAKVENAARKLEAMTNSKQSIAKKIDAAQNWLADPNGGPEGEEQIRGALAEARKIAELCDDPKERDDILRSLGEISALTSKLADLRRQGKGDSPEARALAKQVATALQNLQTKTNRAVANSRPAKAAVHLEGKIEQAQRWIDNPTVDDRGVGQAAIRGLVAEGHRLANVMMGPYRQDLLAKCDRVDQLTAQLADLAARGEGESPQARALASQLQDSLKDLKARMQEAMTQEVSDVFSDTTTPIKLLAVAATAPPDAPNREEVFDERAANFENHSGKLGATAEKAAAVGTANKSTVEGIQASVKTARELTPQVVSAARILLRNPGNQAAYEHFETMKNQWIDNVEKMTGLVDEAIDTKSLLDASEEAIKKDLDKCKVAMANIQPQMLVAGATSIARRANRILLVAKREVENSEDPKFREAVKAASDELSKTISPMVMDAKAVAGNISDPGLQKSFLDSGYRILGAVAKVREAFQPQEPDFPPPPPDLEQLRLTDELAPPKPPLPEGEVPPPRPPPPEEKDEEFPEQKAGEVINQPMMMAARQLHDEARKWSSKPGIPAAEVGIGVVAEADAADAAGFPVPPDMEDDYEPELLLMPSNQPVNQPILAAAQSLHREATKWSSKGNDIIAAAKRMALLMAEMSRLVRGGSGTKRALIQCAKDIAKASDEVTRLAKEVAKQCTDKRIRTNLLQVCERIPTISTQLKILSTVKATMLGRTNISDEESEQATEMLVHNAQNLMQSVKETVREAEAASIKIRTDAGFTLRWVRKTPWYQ
Chain of proteins of U3A human fibrosarcoma cells (4462 proteins detected) (Homo sapiens, UniProt Q06546) (Q06546 whole entry): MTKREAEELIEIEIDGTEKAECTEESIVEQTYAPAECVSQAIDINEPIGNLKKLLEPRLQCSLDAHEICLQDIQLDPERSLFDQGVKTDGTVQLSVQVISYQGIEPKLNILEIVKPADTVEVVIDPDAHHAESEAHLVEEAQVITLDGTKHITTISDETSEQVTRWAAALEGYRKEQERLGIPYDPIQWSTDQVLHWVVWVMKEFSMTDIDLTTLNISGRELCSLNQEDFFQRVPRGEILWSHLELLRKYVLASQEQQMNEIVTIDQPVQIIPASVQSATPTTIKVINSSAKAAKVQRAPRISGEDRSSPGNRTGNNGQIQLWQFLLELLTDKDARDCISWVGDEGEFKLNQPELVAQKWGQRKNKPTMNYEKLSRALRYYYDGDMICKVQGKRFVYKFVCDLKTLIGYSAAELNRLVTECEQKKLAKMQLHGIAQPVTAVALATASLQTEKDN
Chain of proteins of U3A human fibrosarcoma cells (4462 proteins detected) (Homo sapiens, UniProt P31949) (P31949 whole entry): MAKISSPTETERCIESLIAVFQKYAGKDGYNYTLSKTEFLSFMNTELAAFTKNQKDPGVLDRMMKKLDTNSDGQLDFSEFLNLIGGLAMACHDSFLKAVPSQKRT
Chain of proteins of U3A human fibrosarcoma cells (4462 proteins detected) (Homo sapiens, UniProt Q9NQT5) (Q9NQT5 whole entry): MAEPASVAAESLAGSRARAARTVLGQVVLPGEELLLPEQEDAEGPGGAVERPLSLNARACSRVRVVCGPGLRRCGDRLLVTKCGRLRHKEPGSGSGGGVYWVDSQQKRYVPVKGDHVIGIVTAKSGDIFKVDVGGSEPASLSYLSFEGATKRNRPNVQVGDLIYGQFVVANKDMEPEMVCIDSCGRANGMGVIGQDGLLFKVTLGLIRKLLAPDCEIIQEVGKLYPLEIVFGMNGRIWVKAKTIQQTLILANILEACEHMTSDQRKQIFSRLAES
Chain of proteins of U3A human fibrosarcoma cells (4462 proteins detected) (Homo sapiens, UniProt Q9Y6E2) (Q9Y6E2 whole entry): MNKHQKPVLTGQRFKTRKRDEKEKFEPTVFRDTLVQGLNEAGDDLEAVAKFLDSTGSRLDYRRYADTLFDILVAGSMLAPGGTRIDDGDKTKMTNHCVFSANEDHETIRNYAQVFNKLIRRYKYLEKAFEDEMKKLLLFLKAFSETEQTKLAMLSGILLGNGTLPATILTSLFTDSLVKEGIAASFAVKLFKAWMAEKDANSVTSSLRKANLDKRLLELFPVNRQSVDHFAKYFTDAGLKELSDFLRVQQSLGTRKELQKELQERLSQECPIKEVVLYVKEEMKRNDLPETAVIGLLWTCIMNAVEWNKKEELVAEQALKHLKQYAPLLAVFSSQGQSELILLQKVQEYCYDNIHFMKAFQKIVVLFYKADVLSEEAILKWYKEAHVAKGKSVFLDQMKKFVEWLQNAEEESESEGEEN
Chain of proteins of U3A human fibrosarcoma cells (4462 proteins detected) (Homo sapiens, UniProt Q5SZL2) (Q5SZL2 whole entry): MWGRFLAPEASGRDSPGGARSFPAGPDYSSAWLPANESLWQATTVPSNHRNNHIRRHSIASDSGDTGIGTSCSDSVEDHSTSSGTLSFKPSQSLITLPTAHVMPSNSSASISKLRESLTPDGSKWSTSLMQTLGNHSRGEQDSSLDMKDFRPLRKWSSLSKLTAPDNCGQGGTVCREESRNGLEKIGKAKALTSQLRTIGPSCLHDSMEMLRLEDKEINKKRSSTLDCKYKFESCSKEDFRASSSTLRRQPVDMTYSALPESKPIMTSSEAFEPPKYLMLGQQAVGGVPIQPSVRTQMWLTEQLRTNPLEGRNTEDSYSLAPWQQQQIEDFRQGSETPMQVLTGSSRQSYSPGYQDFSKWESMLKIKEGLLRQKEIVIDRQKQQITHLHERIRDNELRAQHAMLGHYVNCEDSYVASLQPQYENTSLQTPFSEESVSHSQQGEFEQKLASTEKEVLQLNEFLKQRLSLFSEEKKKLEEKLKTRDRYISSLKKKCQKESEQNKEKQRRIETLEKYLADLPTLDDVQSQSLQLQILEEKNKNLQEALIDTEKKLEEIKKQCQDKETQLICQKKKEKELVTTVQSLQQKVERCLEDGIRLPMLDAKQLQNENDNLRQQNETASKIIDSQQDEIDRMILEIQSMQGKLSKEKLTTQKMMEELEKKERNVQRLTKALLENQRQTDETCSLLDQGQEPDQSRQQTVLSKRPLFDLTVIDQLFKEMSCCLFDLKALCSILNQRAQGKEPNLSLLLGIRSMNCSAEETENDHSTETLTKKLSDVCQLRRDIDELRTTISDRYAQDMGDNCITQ
Chain of proteins of U3A human fibrosarcoma cells (4462 proteins detected) (Homo sapiens, UniProt Q9Y478) (Q9Y478 whole entry): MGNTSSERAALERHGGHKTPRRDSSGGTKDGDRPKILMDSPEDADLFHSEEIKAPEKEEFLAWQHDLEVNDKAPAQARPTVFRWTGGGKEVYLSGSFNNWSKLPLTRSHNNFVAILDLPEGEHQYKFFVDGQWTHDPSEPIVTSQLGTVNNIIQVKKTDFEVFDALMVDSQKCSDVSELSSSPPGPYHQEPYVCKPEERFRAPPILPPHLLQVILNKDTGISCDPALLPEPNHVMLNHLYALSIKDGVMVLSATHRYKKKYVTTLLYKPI
Chain of proteins of U3A human fibrosarcoma cells (4462 proteins detected) (Homo sapiens, UniProt Q96DH6) (Q96DH6 whole entry): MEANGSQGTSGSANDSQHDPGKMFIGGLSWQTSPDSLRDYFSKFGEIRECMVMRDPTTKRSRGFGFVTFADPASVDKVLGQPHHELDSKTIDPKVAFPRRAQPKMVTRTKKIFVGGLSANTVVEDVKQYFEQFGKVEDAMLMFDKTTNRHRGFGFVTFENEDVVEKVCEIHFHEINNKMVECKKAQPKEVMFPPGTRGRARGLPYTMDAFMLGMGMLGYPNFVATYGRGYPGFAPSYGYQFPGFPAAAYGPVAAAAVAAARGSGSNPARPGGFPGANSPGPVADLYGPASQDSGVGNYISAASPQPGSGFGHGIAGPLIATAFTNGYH
Chain of proteins of U3A human fibrosarcoma cells (4462 proteins detected) (Homo sapiens, UniProt Q9P032) (Q9P032 whole entry): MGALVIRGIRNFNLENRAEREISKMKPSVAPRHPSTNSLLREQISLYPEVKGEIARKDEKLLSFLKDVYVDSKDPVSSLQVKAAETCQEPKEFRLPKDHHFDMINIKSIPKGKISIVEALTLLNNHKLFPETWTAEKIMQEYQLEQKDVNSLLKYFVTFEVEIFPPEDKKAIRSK

## CCc1nc(N)nc(N)c1-c1ccc(Cl)cc1 [pyrimethamine]
[1]
  Log2 (PYR/DMSO): 0.15
[2]
  Log2 (PYR/DMSO): 0.19
[3]
  Log2 (PYR/DMSO): 0.14
[4]
  Log2 (PYR/DMSO): 0.19
[5]
  Log2 (PYR/DMSO), CEP83: -0.43
[6]
  Log2 (PYR/DMSO): 0.18
[7]
  Log2 (PYR/DMSO), SH3D19: -0.14
[8]
  Log2 (PYR/DMSO): 0.14
[9]
  Log2 (PYR/DMSO): 0.15
[10]
  Log2 (PYR/DMSO): 0.16
[11]
  Log2 (PYR/DMSO): -0.04
[12]
  Log2 (PYR/DMSO), CEP85L: -0.24
[13]
  Log2 (PYR/DMSO): 0.23
[14]
  Log2 (PYR/DMSO), RRM1: 0.24
[15]
  Log2 (PYR/DMSO): 0.23
[16]
  Log2 (PYR/DMSO), MSI2: -0.17
[17]
  Log2 (PYR/DMSO), ATP1B3: 0.27
[18]
  Log2 (PYR/DMSO): -0.04
[19]
  Log2 (PYR/DMSO): -0.04
[20]
  Log2 (PYR/DMSO): 0.23
[21]
  Log2 (PYR/DMSO): -0.05
[22]
  Log2 (PYR/DMSO): 0.14
[23]
  Log2 (PYR/DMSO): 0.19
[24]
  Log2 (PYR/DMSO): -0.05
[25]
  Log2 (PYR/DMSO): 0.23
[26]
  Log2 (PYR/DMSO): 0.17
[27]
  Log2 (PYR/DMSO): 0.19
[28]
  Log2 (PYR/DMSO): 0.16
[29]
  Log2 (PYR/DMSO): 0.17
[30]
  Log2 (PYR/DMSO): -0.04
